# Where two headings read alike, the source gives them in different places. Where a SMILES comes first, the peptide text is derived from it. Side-chain parts run from the residue outwards. [ ]: non-standard residue; d: D form. The star is where a group is joined. Lys(α,ε-(ArgTrp)2) = N=C(N)NCCC[C@H](N)C(=O)N[C@@H](Cc1c[nH]c2ccccc12)C(=O)NCCCC[C@H](NC(=O)[C@H](Cc1c[nH]c2ccccc12)NC(=O)[C@@H](N)CCCNC(=N)N)C(=O)*; βAla = NCCC(=O)O
# How the values were obtained:
# [1] = tested on: ampicillin- and streptomycin-resistant E. coli (D31); assay: microbe, parasite or virus in culture; settings: Escherichia coli, read-out: MIC50 E. coli
# E. faecalis (29212) [2] = assay: microbe, parasite or virus in culture; settings: Enterococcus faecalis, read-out: MIC50 E. faecalis
# [3] = tested on: multi-drug resistant strain S. aureus; assay: microbe, parasite or virus in culture; settings: Staphylococcus aureus, read-out: MIC50 S. aureus
# [4] = tested on: multi-drug resistant strain S. aureus
# [5] = tested on: B. anthracis (32F2 Sterne); assay: microbe, parasite or virus in culture; settings: Bacillus anthracis, read-out: MIC50 B. anthracis
# B. Subtilis (ATCC 6633) [6] = assay: microbe, parasite or virus in culture; settings: Bacillus subtilis, ATCC6633, read-out: MIC50 B. subtilis
# fresh sheep erythrocytes = assay: hemolytic assay; type: cell-based; settings: sheep, 30 min, pH 7.2
# Procedure: Hemolytic activity of model peptides was assessed on fresh sheep erythrocytes (Fitzgerald Inc., Concord, Mass.). […] The resulting supernatant was diluted by a factor of 40 in distilled water. The absorbances of the supernatant at λ=540 nm (OD540) were measured in the UV Spectrophotometer. […] Hemolytic index (HI) was defined as HI═HD50/IC50.
# [7] = tested on: ampicillin- and streptomycin-resistant E. coli (D31)
# [8] = tested on: E. coli(D31) gram-negative bacteria; assay: killing of multi-drug resistant bacteria, one hour contact; type: cell-based
# gram-positive MRSA = assay: LIVE/DEAD staining assay, membrane damage; type: cell-based; settings: 1 hr incubation; (RW)4D 10 uM
# [9] = tested on: B. anthracis (32F2 Sterne)
# [10] = tested on: multi-drug resistant MRSA gram-positive bacteria; assay: killing of multi-drug resistant bacteria, one hour contact; type: cell-based
# E. coli RP437 biofilm = assay: two-day biofilm on stainless steel coupons, Live/Dead staining; type: cell-based; settings: 25 μg/mL, 48 hours
# Procedure: E. coli biofilm inhibition by (RW)4D was also studied on stainless steel coupons. Microscope images were taken after staining the two-day biofilms with Live/Dead staining solution. […] Assay summary: E. coli RP437 was used to form biofilms in a plastic dish with stainless steel coupons and different concentrations of peptides. After 48 hours incubation, coupon was soaked in NaCl buffer containing staining component in the dark for 15 mins.
# B. Subtilis (ATCC 6633) [11] = settings: ATCC 6633
# [12] = tested on: three other gram-positive bacteria; settings: three gram-positive bacteria
# [13] = antibacterial activity under physiological conditions (90% human serum); type: cell-based
# Procedure: In a further experiment, antibacterial activity under physiological conditions was tested. The MIC50 was determined in the presence of 90% human serum, respectively.
# [14] = tested on: gram-negative A. baumannii; assay: LIVE/DEAD staining assay, membrane damage; type: cell-based; settings: 1 hr incubation; (RW)4D 10 uM
# [15] = tested on: Multidrug-resistant gram-positive S. aureus; settings: over 250 generations
# E. coli (RP437) biofilm = assay: biofilm formation in 96 well plates, crystal violet; type: cell-based; settings: 24 hours
# Text: The effect of dendrimers of the invention on E. coli biofilm formation was further examined and measured. The development of a bacterial biofilm allows for the bacteria to become more antibiotic resistant. […] Assay summary: E. coli (RP437) was used to form biofilms in 96 well plates with and without different concentrations of peptides.
# Acineto Baumannii = assay: killing and growth inhibition of Acineto Baumannii; type: cell-based
# [16] = tested on: gram-negative E. coli (D31); settings: over 250 generations
# [17] = dye leakage assay (calcein); settings: POPG vesicles
# Text: To confirm that the multivalent AMPs interact with and disrupt phospholipid bilayers, we measured the ability of dendrimer (RW)4D to induce leakage of calcein, entrapped within the interior of large unilamellar vesicles of model membrane POPG (1-Palmitoyl-2-Oleoyl-sn-Glycero-3-[Phospho-rac-(1-glycerol)]) with negatively charged head group. The leakage of vesicle contents to the AMPs was monitored by the release of calcein encapsulated in large unilamellar vesicles. The method of preparation of dye-encapsulated vesicles has been reported in detail (Torchilin and Weissig 2003). In short, large unilamellar POPG vesicles were prepared by reverse-phase evaporation. After evaporating the organic solvent, residue were hydrated with the calcein solution (100 mM) in buffer (10 mM Tris-HCl pH 7.4). The free calcein was removed by eluting through a Sephadex G-50 size-exclusion column in the same buffer. The leakage process was monitored by following the increase of calcein fluorescence intensity at 515 nm (excitation at 490 nm) after 20 μL of AMPs at different concentrations were added to 10 μL of vesicle solution mixed in 2 mL of TBS buffer. Complete leakage was achieved by addition of 100 uL of 20% Triton X-100 to the 2 ml solution, and the corresponding fluorescence intensity was used as 100% leakage for the calculation of leakage fraction.
# [18] = type: cell-based, mouse
# Procedure: The cells were grown in 96 well plates and a 100 μl aliquot of a three fold serial dilution of the peptides was dispensed into each well. Buffer alone was used as the positive control and H2O2 was used as the negative control. MTS […] was added to each well prior to incubation to visualize the cells. The cells were incubated for 24 hours and their absorbance were measured at λ=495 nm.
# E. faecalis (29212) [19] = settings: 29212
# trypsin = trypsin at high concentration, various time intervals up to 24 hrs
# [20] = mean over no, low and high salt
structure (smiles),measurement,setting,value
CC(C)(O/N=C(\C(=O)N[C@@H]1C(=O)N2C(C(=O)[O-])=C(C[n+]3ccccc3)CS[C@H]12)c1csc(N)n1)C(=O)O [Ceftazidime],MIC50,[1],44 µg/mL
same,MIC50,E. faecalis (29212) [2],14 µg/mL
same,MIC50,[3],63 µg/mL
same,MIC50 S. aureus,[4]; 75 mM NaCl,63 µg/mL
same,MIC50 S. aureus,[4]; 150 mM NaCl,63 µg/mL
same,MIC50,[5],91 µg/mL
same,MIC50,B. Subtilis (ATCC 6633) [6],6.2 µg/mL
same,HD50 (peptide concentration corresponding to 50% hemolysis),fresh sheep erythrocytes,>2000 µg/mL
same,MIC50 E. coli,[7]; 75 mM NaCl,44 µg/mL
same,MIC50 E. coli,[7]; 150 mM NaCl,44 µg/mL
"N=C(N)NCCC[C@H](N)C(=O)N[C@@H](Cc1c[nH]c2ccccc12)C(=O)NCCCC[C@H](NC(=O)[C@H](Cc1c[nH]c2ccccc12)NC(=O)[C@@H](N)CCCNC(=N)N)C(=O)NCCCC[C@H](NC(=O)[C@H](CCCCNC(=O)[C@H](Cc1c[nH]c2ccccc12)NC(=O)[C@@H](N)CCCNC(=N)N)NC(=O)[C@H](Cc1c[nH]c2ccccc12)NC(=O)[C@@H](N)CCCNC(=N)N)C(=O)NCCC(N)=O [Den(RW)4D] (H-RWK([Trp-Arg])K(Lys(α,ε-(ArgTrp)2))[βAla]-NH2)",decrease in bacteria remaining after contact,[8],3 log
same,membrane damage / killing by Live/Dead staining,gram-positive MRSA,show damaged membranes
same,MIC50 B. anthracis,[9],13 µg/mL
same,decrease in bacteria remaining after contact,[10],3 log
same,total biofilm formation on stainless steel coupons compared with blank control,E. coli RP437 biofilm,significantly reduced
same,MIC50 S. aureus,[4]; 0 mM NaCl,10 µg/mL
same,MIC50 S. aureus,[4]; 75 mM NaCl,15 µg/mL
same,MIC50 S. aureus,[4]; 150 mM NaCl,16 µg/mL
same,mean MIC50 against S. aureus,[4]; [20],13.6 µg/mL
same,MIC50 B. subtilis,B. Subtilis (ATCC 6633) [11],3.5 µg/mL
same,mean MIC50 against all test organisms,[12],7.4 µg/mL
same,antimicrobial activity in the presence of human serum,[13],human serum cannot completely block the antimicrobial activity
same,membrane damage / killing by Live/Dead staining,[14],show damaged membranes
same,development of resistance (MIC90),[15],did not show resistance
same,inhibition of biofilm formation,E. coli (RP437) biofilm,exhibited inhibition of E. coli biofilm formation
same,killing and growth inhibition,Acineto Baumannii,can kill the bacteria and inhibit its growth at very low concentration
same,development of resistance (MIC90),[16],did not show resistance
same,concentration at which peptide caused 50% dye leakage,[17],0.5 µg/mL
same,IC50,[18],~1380 µg/mL
same,MIC50 E. faecalis,E. faecalis (29212) [19],5.5 µg/mL
same,inactivation of antibacterial activity by trypsin,trypsin,resistant to inactivation by trypsin
same,increase in MIC50 value from no salt to high-salt condition,[7],50%
same,MIC50 E. coli,[7]; 0 mM NaCl,3.0 µg/mL
same,MIC50 E. coli,[7]; 75 mM NaCl,3.9 µg/mL
same,MIC50 E. coli,[7]; 150 mM NaCl,4.5 µg/mL
same,mean MIC50 against E. coli,[7]; [20],3.8 µg/mL

# — patent US7902327B2, “Dendrimeric peptides, pharmaceutical compositions and methods of using the same” (New York University School of Medicine, priority 2007, dated 2011)
